Assay results from ChEMBL document CHEMBL1165947, “Synthesis and antitumor activity of 2,5-bis(3'-indolyl)-furans and 3,5-bis(3'-indolyl)-isoxazoles, nortopsentin analogues” (Bioorg Med Chem, 2010).

System: P388
Test: Cytotoxicity against mouse P388 cells
Assay type: functional, cell-based

## Cn1c(-c2cn(C)c3cc(Br)ccc23)cnc1-c1cn(C)c2ccccc12
  IC50: 800 nM
